Consider two molecules from US9403814B2, “Crystalline forms of dihydropyrimidine derivatives” (SUNSHINE LAKE PHARMA CO., LTD., priority 2012, dated 2016).

Data set [1] in a line: Solubility test: dissolution of crystalline form sample in water. In kind it is physicochemical. The settings on record: 25±5° C.; for dissolubility of samples (300 mg/mL): about 600 mg sample in water (2 mL), ultrasonic vibration, visual check for solute particles; for solubility in water (conclusion from Table 1): 300 mg/mL. The procedure: About 600 mg of a crystalline form sample was added to water (2 mL). The dissolution of the sample was obtained with ultrasonic vibration at 25±5° C. No visible solute particles mean that the sample has a complete dissolution in water; whereas visible solute particles mean that the sample precipitates in water.

Data set [2] is described as follows: Stability test: impurity content by HPLC under storage conditions. It is filed as physicochemical. As to conditions: for stability under the experimental conditions (conclusion from Tables 2 and 3): high temperature, accelerated, mediated, high humidity and illumination conditions, up to 30 days. The procedure:
A crystalline form sample was put in a watch glass in the form of a thin layer of ≦5 mm. The stability test was conducted under different conditions: high temperature (60±2° C.) for 30 days, accelerated condition (40±2° C., 75%±5% humidity) for 30 days, mediated condition (30±2° C., 65%±5% humidity) for 30 days, high humidity (25±2° C., 90%±5%) for 10 days and illumination condition (visible light 4500 lx±500 lx with ultraviolet light not lower than 0.7 W·h/m^2, 25±2° C., 60%±5% relative humidity) for 10 days respectively. The impurity contents of crystalline forms B and C were determined at various time points (0, 10, 20, and 30 days) by high performance liquid chromatography (HPLC) with peak area normalization.

[3] abbreviates: accelerated condition (40±2° C., 75%±5% humidity), 0 day.
Where [4] appears, read: accelerated condition (40±2° C., 75%±5% humidity), 10 days.
Where [5] appears, read: accelerated condition (40±2° C., 75%±5% humidity), 20 days.
[6] abbreviates: accelerated condition (40±2° C., 75%±5% humidity), 30 days.
Setting [7] is: high humidity (25±2° C., 90%±5%), 0 day.
Setting [8] is: high humidity (25±2° C., 90%±5%), 10 days.
[9] abbreviates: high temperature (60±2° C.), 0 day.
[10] abbreviates: high temperature (60±2° C.), 10 days.
[11] abbreviates: high temperature (60±2° C.), 20 days.
Setting [12] is: high temperature (60±2° C.), 30 days.
The mark [13] stands for this setting: illumination condition (visible light 4500 lx±500 lx with UV, 25±2° C., 60%±5% relative humidity), 0 day.
[14] abbreviates: illumination condition (visible light 4500 lx±500 lx with UV, 25±2° C., 60%±5% relative humidity), 10 days.
The mark [15] stands for this setting: mediated condition (30±2° C., 65%±5% humidity), 0 day.
[16] abbreviates: mediated condition (30±2° C., 65%±5% humidity), 10 days.
Where [17] appears, read: mediated condition (30±2° C., 65%±5% humidity), 20 days.
The mark [18] stands for this setting: mediated condition (30±2° C., 65%±5% humidity), 30 days.

Structures can show the parent of a compound that is named as a salt.

For the molecule `CCOC(=O)C1=C(CN2CCOCC2)NC(c2nccs2)=NC1c1ccc(F)cc1Br` (single isomer, unassigned) [form C, 6[R,S]-ethyl 6-(2-bromo-4-fluorophenyl)-4-(morpholinomethyl)-2-(thiazol-2-yl)-1,6-dihydro pyrimidine-5-carboxylate mesylate], the “dissolubility of samples (300 mg/mL)” value in data set [1] is listed as “completely dissolved, no sample precipitated”. In addition, the “solubility in water (conclusion from Table 1)” value in data set [1] was “good solubility in water”. In addition, the “impurity content by HPLC” value stood at 0.03% in data set [2] (setting [3]); 0.04% in data set [2] (setting [4]); 0.04% in data set [2] (setting [5]); 0.04% in data set [2] (setting [6]); 0.03% in data set [2] (setting [7]); 0.04% in data set [2] (setting [8]). Besides, the “impurity content by HPLC” value in data set [2] (setting [9]) worked out at 0.03%; in data set [2] (setting [10]), 0.06%; in data set [2] (setting [11]) it was 0.03%; in data set [2] (setting [12]), 0.03%; in data set [2] (setting [13]), 0.03%; in data set [2] (setting [14]), 0.03%. The “impurity content by HPLC” value in data set [2] (setting [15]), in data set [2] (setting [16]), in data set [2] (setting [17]) and in data set [2] (setting [18]) was 0.03% each time. For the same molecule, in data set [2], the “stability under the experimental conditions (conclusion from Tables 2 and 3)” value is reported as “did not degrade or change”.

Regarding `CCOC(=O)C1=C(CN2CCOCC2)NC(c2nccs2)=NC1c1ccc(F)cc1Br` (single isomer, unassigned) [form B, 6[R,S]-ethyl 6-(2-bromo-4-fluorophenyl)-4-(morpholinomethyl)-2-(thiazol-2-yl)-1,6-dihydro pyrimidine-5-carboxylate mesylate], the “dissolubility of samples (300 mg/mL)” value in data set [1] is listed as “completely dissolved, some sample precipitated”. Moreover, the “solubility in water (conclusion from Table 1)” value in data set [1] was “good solubility in water”. Also, the “impurity content by HPLC” value turned out to be 0.06% in data set [2] (setting [3]); 0.09% in data set [2] (setting [4]); 0.08% in data set [2] (setting [5]); 0.10% in data set [2] (setting [6]); 0.06% in data set [2] (setting [7]); 0.06% in data set [2] (setting [8]). For the same molecule, the “impurity content by HPLC” value in data set [2] (setting [9]) is recorded as 0.06%; in data set [2] (setting [10]), 0.13%; in data set [2] (setting [11]), 0.20%; in data set [2] (setting [12]), 0.24%; in data set [2] (setting [13]), 0.06%; in data set [2] (setting [14]), 0.12%. For the same molecule, the “impurity content by HPLC” value in data set [2] (setting [15]) is listed as 0.06%; in data set [2] (setting [16]), 0.10%; in data set [2] (setting [17]), 0.13%; in data set [2] (setting [18]) it was 0.12%. Also, the “stability under the experimental conditions (conclusion from Tables 2 and 3)” value in data set [2] is “did not degrade or change”.
